Test results reported in paper PMC11879040, “Advancing systemic toxicity risk assessment: Evaluation of a NAM-based toolbox approach” (Toxicological Sciences, 2024).
Like-named read-outs stand apart in the source and are kept apart here.

Columns and labels:
[1] = target: 5-hydroxytryptamine receptor 1B, HTR1B (h) (Homo sapiens, UniProt P28222); assay type: binding; conditions: IPP screening at 10 uM; control serotonin
[2] = target: T1, Beta-2 adrenergic receptor, ADRB2 (h) (Homo sapiens, UniProt P07550); assay: IPP ADRB2 binding (antagonist radioligand); conditions: control ICI 118551
T1 construct: purchased Eurofins Cerep (SafetyScreen44-based IPP panel)

[3] = target: Tyrosine-protein kinase Lck, LCK (h) (Homo sapiens, UniProt P06239); assay: IPP LCK enzymatic activity; assay type: biochemical; conditions: IPP screening at 10 uM; control staurosporine
Tyrosine-protein kinase Lck, LCK (h), sequence (P06239 whole entry): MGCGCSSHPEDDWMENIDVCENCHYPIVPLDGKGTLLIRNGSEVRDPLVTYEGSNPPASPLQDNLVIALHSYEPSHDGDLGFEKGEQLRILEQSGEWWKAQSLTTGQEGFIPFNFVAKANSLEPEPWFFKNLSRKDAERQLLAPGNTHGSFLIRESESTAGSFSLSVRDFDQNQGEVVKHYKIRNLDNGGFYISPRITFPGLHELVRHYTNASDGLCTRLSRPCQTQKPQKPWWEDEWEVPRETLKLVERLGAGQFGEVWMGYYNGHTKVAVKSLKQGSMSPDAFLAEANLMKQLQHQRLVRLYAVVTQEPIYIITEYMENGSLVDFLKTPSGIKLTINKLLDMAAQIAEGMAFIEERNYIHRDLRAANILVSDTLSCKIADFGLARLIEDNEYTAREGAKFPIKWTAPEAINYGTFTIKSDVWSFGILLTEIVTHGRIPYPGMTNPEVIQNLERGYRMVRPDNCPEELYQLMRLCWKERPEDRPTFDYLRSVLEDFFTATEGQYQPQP

[4] = target: Vasopressin V1a receptor, AVPR1A (h) (Homo sapiens, UniProt P37288); assay: IPP AVPR1A binding (agonist radioligand); conditions: ligand/control [d(CH2)5 1,Tyr(Me)2]-AVP
Vasopressin V1a receptor, AVPR1A (h), sequence (P37288 whole entry): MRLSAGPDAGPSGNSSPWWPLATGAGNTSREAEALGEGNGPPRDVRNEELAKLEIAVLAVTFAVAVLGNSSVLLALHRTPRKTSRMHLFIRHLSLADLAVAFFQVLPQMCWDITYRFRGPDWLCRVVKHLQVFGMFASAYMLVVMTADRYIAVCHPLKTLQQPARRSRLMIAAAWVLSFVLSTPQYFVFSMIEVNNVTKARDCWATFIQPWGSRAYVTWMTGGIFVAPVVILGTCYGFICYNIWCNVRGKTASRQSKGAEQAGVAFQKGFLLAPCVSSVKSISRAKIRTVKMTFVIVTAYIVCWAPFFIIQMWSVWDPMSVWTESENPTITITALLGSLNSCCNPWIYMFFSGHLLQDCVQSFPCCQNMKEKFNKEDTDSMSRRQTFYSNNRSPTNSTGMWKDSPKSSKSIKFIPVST

[5] = tested on: 63 targets with known safety liabilities; assay: In vitro pharmacological profiling (IPP) panel, screening at 10 or 100 µM and dose response, minimum IC50/AC50; assay type: biochemical; conditions: lowest AC50 across IPP panel (systemic targets); cell_type -; read-out: ipp_lowest_ac50_systemic PoD
[6] = target: T2, Endothelin-1 receptor, EDNRA (h) (Homo sapiens, UniProt P25101); conditions: control endothelin-1
T2 sequence (P25101 21-427): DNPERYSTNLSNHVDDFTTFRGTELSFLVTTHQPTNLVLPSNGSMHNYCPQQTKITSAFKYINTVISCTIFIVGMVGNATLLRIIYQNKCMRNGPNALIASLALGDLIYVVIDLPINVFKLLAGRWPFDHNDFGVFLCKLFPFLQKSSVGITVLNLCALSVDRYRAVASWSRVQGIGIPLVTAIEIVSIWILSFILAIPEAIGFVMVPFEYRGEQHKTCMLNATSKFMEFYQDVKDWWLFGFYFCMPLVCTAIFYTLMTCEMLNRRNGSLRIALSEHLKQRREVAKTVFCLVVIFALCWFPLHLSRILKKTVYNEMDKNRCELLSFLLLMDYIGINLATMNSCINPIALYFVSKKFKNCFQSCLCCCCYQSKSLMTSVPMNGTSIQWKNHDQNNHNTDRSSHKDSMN

[7] = target: T3, 5-hydroxytryptamine receptor 1A, HTR1A (h) (Homo sapiens, UniProt P08908); conditions: control 8-OH-DPAT
T3 sequence (P08908 1-422): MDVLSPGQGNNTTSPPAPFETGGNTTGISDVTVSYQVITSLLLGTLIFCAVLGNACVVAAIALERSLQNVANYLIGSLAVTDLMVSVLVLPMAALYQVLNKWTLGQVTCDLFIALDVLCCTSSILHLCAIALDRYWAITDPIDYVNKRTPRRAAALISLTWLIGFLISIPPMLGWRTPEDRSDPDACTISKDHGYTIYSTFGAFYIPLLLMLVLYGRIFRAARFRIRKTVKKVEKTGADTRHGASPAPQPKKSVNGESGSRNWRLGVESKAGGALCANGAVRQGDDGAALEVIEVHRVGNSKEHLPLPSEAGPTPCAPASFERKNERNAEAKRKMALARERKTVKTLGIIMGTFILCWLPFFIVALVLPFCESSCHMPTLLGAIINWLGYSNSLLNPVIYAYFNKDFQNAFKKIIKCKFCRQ

[8] = target: Beta-1 adrenergic receptor, ADRB1 (h) (Homo sapiens, UniProt P08588); conditions: control atenolol
Beta-1 adrenergic receptor, ADRB1 (h), sequence (P08588 whole entry): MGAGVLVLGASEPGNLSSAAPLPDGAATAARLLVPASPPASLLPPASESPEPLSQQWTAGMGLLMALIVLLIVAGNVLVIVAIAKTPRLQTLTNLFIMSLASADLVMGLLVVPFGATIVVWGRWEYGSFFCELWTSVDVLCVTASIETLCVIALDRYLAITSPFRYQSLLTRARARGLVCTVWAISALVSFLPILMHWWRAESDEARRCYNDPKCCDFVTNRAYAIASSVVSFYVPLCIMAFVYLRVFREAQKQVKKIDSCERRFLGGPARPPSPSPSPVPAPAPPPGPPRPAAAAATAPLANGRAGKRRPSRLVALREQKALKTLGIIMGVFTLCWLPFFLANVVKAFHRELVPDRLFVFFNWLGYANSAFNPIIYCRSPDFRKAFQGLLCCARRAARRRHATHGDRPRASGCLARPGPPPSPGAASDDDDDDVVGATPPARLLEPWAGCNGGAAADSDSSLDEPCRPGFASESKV

[9] = target: Dopamine receptor D1, DRD1 (h) (Homo sapiens, UniProt P21728); conditions: control SCH 23390
Dopamine receptor D1, DRD1 (h), sequence (P21728 whole entry): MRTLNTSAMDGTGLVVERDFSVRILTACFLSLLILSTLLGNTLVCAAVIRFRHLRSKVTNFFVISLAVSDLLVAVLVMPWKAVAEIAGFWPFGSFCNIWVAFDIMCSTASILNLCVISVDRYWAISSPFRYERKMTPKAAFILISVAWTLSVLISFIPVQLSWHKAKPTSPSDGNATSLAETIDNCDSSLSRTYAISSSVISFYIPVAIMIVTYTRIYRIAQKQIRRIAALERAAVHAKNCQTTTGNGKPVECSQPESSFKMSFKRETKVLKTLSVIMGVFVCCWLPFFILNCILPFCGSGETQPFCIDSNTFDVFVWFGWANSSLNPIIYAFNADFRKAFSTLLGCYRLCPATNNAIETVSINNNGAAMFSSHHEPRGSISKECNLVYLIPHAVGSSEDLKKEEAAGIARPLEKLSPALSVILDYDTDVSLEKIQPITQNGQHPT

[10] = target: 5-hydroxytryptamine receptor 2B, HTR2B (h) (Homo sapiens, UniProt P41595)
5-hydroxytryptamine receptor 2B, HTR2B (h), sequence (P41595 whole entry): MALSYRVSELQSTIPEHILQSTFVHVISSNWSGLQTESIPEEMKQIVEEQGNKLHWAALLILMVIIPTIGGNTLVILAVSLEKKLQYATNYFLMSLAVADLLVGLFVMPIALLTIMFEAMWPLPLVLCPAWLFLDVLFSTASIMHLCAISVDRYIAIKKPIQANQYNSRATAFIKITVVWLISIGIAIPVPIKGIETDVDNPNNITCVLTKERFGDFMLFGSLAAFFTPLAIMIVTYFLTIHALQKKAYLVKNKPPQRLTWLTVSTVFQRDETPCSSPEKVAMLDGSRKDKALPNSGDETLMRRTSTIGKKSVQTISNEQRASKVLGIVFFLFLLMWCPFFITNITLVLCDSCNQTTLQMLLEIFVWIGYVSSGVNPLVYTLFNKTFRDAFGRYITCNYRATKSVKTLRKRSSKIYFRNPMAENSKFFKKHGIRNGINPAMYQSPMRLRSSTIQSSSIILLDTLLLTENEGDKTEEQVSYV

[11] = target: T4, Muscarinic acetylcholine receptor M2, CHRM2 (h) (Homo sapiens, UniProt P08172); conditions: control methoctramine
T4 sequence (P08172 1-466): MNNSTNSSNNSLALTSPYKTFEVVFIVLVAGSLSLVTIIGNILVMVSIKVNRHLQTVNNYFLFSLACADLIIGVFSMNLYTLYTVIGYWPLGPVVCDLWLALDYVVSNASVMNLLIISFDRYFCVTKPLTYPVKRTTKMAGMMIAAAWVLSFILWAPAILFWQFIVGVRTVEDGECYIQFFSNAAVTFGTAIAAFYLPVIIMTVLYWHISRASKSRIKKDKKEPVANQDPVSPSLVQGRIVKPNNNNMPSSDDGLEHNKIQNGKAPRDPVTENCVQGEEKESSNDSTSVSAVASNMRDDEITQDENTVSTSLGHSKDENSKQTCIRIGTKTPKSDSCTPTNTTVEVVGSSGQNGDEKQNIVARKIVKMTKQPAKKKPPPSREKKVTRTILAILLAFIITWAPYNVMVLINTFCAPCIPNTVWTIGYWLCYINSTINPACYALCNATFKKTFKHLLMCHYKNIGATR

[12] = target: T5, Peroxisome proliferator-activated receptor alpha, PPARA (h) (Homo sapiens, UniProt Q07869); assay: IPP PPARA coactivator recruitment (agonist); assay type: biochemical; conditions: 10 uM, GW 7647 for control
T5 sequence (Q07869 1-468): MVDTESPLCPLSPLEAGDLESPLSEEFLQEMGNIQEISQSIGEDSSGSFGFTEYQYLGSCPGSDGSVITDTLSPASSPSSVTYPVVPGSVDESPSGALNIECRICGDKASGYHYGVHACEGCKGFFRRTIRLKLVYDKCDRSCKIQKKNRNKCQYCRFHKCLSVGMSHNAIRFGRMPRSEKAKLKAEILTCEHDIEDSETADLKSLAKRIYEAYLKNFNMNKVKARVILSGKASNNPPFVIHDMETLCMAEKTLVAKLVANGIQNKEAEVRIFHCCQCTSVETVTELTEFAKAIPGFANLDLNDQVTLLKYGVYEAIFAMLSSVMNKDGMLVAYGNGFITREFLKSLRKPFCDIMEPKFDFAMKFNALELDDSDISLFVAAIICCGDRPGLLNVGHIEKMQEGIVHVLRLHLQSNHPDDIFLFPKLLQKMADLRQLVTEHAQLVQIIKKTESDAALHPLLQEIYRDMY

[13] = IPP screening at 10 uM, control (±)DOI

5-hydroxytryptamine receptor 1B, HTR1B (h), sequence (P28222 whole entry): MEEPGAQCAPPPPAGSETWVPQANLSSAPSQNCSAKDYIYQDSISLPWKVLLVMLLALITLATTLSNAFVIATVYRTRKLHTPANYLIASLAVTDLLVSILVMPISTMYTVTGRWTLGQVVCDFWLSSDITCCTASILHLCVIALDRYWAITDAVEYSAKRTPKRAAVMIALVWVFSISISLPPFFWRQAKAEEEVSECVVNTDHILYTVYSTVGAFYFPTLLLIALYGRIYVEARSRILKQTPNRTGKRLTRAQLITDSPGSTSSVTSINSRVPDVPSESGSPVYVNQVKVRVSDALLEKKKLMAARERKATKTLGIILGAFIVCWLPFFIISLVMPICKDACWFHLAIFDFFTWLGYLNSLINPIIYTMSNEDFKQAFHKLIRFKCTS

Molecule | Specific binding [1] [%] | Specific binding ([2]; IPP screening at 10 uM) [%] | Enzymatic activity [3] [%] | IPP screening %, Specific binding ([4]; 10 uM) [%] | AC50 [5] [µM] | Specific binding ([6]; IPP screening at 10 uM) [%] | Specific binding ([7]; IPP screening at 10 uM) [%] | Specific binding ([8]; IPP screening at 10 uM) [%] | Specific binding ([9]; IPP screening at 10 uM) [%] | Specific binding [10, 13] [%] | Specific binding ([11]; IPP screening at 10 uM) [%] | IPP screening %, Coactivator recruitment [12] [%] | Specific binding ([2]; IPP screening at 100 uM) [%] | IPP screening %, Specific binding ([4]; 100 uM) [%] | Specific binding ([6]; IPP screening at 100 uM) [%] | Specific binding ([7]; IPP screening at 100 uM) [%] | Specific binding ([8]; IPP screening at 100 uM) [%] | Specific binding ([9]; IPP screening at 100 uM) [%] | Specific binding ([10]; IPP screening at 100 uM; control ±)DOI) [%] | Specific binding ([11]; IPP screening at 100 uM) [%]
CCOP(=S)(OCC)Oc1nc(Cl)c(Cl)cc1Cl [Chlorpyrifos, O,O-Diethyl O-(3,5,6-trichloropyridin-2-yl) phosphorothioate] | -20.1 | -2.4 | -7.4 | -6.8 | 1.85 | 0.1 | 11.6 | 5.3 | 1.9 | 82.5 | -21.3 | – | – | – | – | – | – | – | – | –
CC(C)(C)c1ccc(CCOc2ncnc3ccccc23)cc1 [Fenazaquin, 4-[2-(4-tert-Butylphenyl)ethoxy]quinazoline] | -2.2 | -1.2 | 3.3 | -5.5 | 2.86 | 2.7 | -11.2 | 16.5 | 4.5 | 77.1 | 14.3 | 1.2 | – | – | – | – | – | – | – | –
CC1(C)O[C@@H]2[C@@H](CO[C@@]3(COS(N)(=O)=O)OC(C)(C)O[C@@H]23)O1 [Topiramate, [(3aS,5aR,8aR,8bS)-2,2,7,7-Tetramethyltetrahydro-2H,3aH,7H-bis[1,3]dioxolo[4,5-b:4',5'-d]pyran-3a-yl]methyl sulfamate (non-preferred name)] | – | – | – | – | 0.16 | – | – | – | – | – | – | – | 3.5 | 7.2 | 5.1 | 18.5 | -2.9 | -2.4 | -0.4 | 0.7
(4S,4aR,5S,5aR,6S,12aS)-4-(Dimethylamino)-3,5,6,10,12,12a-hexahydroxy-6-methyl-1,11-dioxo-1,4,4a,5,5a,6,11,12a-octahydrotetracene-2-carboxamide--hydrogen chloride (1/1) [Oxytetracycline hydrochloride] | -8.9 | 0.6 | -1.2 | 1.6 | – | -1.2 | 1.5 | 7.5 | 1.4 | 5.9 | – | -0.7 | – | – | – | – | – | – | – | –
mixture of 2- and 3-tert-butyl-4-methoxyphenol [Butylated Hydroxyanisole] | 0.6 | 0.4 | 14.6 | 15.2 | – | -10.4 | -7.7 | 6.3 | 3.5 | 80.6 | 8.9 | -0.3 | – | – | – | – | – | – | – | –
